Measurements taken from PubChem BioAssay (NCI).
Values joined by “and” are separate entries in the source; they are usually repeats but may differ in a detail not shown here. Identical values can stand only once.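 Tested at 5 concentrations; 48 h exposure; 96-well plates; endpoints linearly interpolated, else capped at highest concentration. GI50 is the concentration that inhibits growth by half. The concentration for full growth arrest is given as TGI.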

What was measured:
Assay in all cases: NCI-60 cell line screen, 48 h
[1] = system: A549 NSCLC
[2] = system: EKVX NSCLC
[3] = system: HOP-62 NSCLC
[4] = system: LOX IMVI melanoma
[5] = system: M14 melanoma
[6] = system: SK-MEL-5 melanoma
[7] = system: SK-OV-3 ovarian
[8] = system: SN12C renal
[9] = system: T-47D breast
[10] = system: UACC-257 melanoma

SMILES: CCCCS(=O)c1sc2nc(-c3cccs3)cc(-c3ccccc3)c2c1N (stereo unspecified)
- GI50 [1]: 9.69 µM
- TGI [1]: > 100 µM
- GI50 [2]: 9.48 µM
- TGI [2]: > 100 µM
- GI50 [3]: 31.1 µM
- TGI [3]: > 100 µM
- GI50 [4]: 13 µM
- TGI [4]: > 100 µM
- GI50 [5]: 17.9 µM
- TGI [5]: > 100 µM
- GI50 [6]: 13.3 µM
- TGI [6]: 28.3 µM
- GI50 [7]: 27.8 µM
- TGI [7]: 97.3 µM
- GI50 [8]: 24.9 µM
- TGI [8]: > 100 µM
- GI50 [9]: 5.77 µM
- TGI [9]: 46.7 µM
- GI50 [10]: 25.1 µM
- TGI [10]: 90.5 µM

SMILES: CN(C)c1ccc(-c2cc(-c3ccc(Nc4nc(Nc5ccc(Cl)cc5)nc(Nc5ccc(Cl)cc5)n4)cc3)nc(N)c2C#N)cc1
- GI50 [1]: 13.9 µM
- TGI [1]: > 100 µM
- GI50 [2]: > 100 µM
- TGI [2]: > 100 µM
- GI50 [3]: > 100 µM
- TGI [3]: > 100 µM
- GI50 [4]: 18.9 µM
- TGI [4]: > 100 µM
- GI50 [5]: 18.3 µM
- TGI [5]: > 100 µM
- GI50 [6]: 4.56 µM
- TGI [6]: > 100 µM
- GI50 [7]: > 100 µM
- TGI [7]: > 100 µM
- GI50 [8]: 13.8 µM
- TGI [8]: > 100 µM
- GI50 [9]: 7.59 µM
- TGI [9]: > 100 µM
- GI50 [10]: 12.3 µM
- TGI [10]: > 100 µM

SMILES: CCCCCCCCCCCC[C@@H](O)[C@H]1CC[C@H]([C@H](O)CC[C@H](O)[C@@H]2CC[C@@H](CCCCCCCC3=C[C@H](C)OC3=O)O2)O1
- GI50 [1]: 2.2 µM
- TGI [1]: > 50 µM
- GI50 [2]: 1.69 µM
- TGI [2]: > 50 µM
- TGI [3]: > 50 µM
- GI50 [4]: 1.13 µM
- GI50 [5]: 4.99 µM
- TGI [5]: > 50 µM
- GI50 [6]: 1.3 µM
- TGI [6]: 7.93 µM and > 50 µM
- TGI [7]: > 50 µM
- GI50 [8]: > 50 µM
- TGI [8]: > 50 µM
- GI50 [9]: 4.45 µM
- TGI [9]: > 50 µM
- GI50 [10]: 0.152 µM

SMILES: COc1ccc(Nc2cnc3cc(N)cc(N)c3n2)cc1
- GI50 [1]: 26.8 µM
- TGI [1]: > 100 µM
- GI50 [2]: 22 µM
- TGI [2]: 42.6 µM
- GI50 [3]: 24.4 µM
- TGI [3]: 51.9 µM
- GI50 [4]: 18.8 µM
- TGI [4]: 40.5 µM
- GI50 [5]: 14.5 µM
- TGI [5]: 28 µM
- GI50 [6]: 16 µM
- TGI [6]: 29.8 µM
- GI50 [7]: 28.2 µM
- TGI [7]: 80.9 µM
- GI50 [8]: 15.6 µM
- TGI [8]: 37 µM
- GI50 [9]: 27 µM
- TGI [9]: 75.5 µM
- GI50 [10]: 19.4 µM
- TGI [10]: 45.9 µM

SMILES: CCCCCCCCCCCCCCNC(=O)Nc1ccc(Cl)c(Cl)c1
- GI50 [1]: 3.34 µM
- TGI [1]: > 100 µM
- GI50 [2]: 1.97 µM
- TGI [2]: 6.15 µM
- GI50 [3]: 2.77 µM
- TGI [3]: > 23.1 µM
- GI50 [4]: 3.23 µM
- TGI [4]: > 100 µM
- GI50 [5]: 2.89 µM
- TGI [5]: > 44.3 µM
- GI50 [6]: 1.68 µM
- TGI [6]: 3.23 µM
- GI50 [7]: 3 µM
- TGI [7]: > 28.3 µM
- GI50 [8]: 2.85 µM
- TGI [8]: > 100 µM
- GI50 [9]: 3.17 µM
- TGI [9]: > 30 µM
- GI50 [10]: 2.78 µM
- TGI [10]: 11.3 µM

SMILES: O=C(O)CN(CCN(CC(=O)O)CC(=O)O)CC(=O)O.[Mn+2]
- GI50 [1]: > 100 µM
- TGI [1]: > 100 µM
- GI50 [2]: > 100 µM
- TGI [2]: > 100 µM
- GI50 [3]: > 100 µM
- TGI [3]: > 100 µM
- GI50 [4]: > 100 µM
- TGI [4]: > 100 µM
- GI50 [5]: > 100 µM
- TGI [5]: > 100 µM
- GI50 [6]: > 100 µM
- TGI [6]: > 100 µM
- GI50 [7]: > 100 µM
- TGI [7]: > 100 µM
- GI50 [8]: > 100 µM
- TGI [8]: > 100 µM
- GI50 [9]: > 100 µM
- TGI [9]: > 100 µM
- GI50 [10]: > 100 µM
- TGI [10]: > 100 µM

SMILES: COc1ccccc1Oc1nccc(-c2c(-c3ccc(F)cc3)ncn2C2CCNCC2)n1
- GI50 [1]: > 25 µM
- TGI [1]: > 25 µM
- GI50 [2]: > 25 µM
- TGI [2]: > 25 µM
- GI50 [3]: > 25 µM
- TGI [3]: > 25 µM
- GI50 [4]: 17.6 µM
- TGI [4]: > 25 µM
- GI50 [5]: > 19.1 µM
- TGI [5]: > 25 µM
- GI50 [6]: 7.2 µM
- TGI [6]: > 25 µM
- GI50 [7]: > 25 µM
- TGI [7]: > 25 µM
- GI50 [8]: > 25 µM
- TGI [8]: > 25 µM
- GI50 [9]: > 25 µM
- TGI [9]: > 25 µM

SMILES: COc1cc(OC)c(OC)cc1/C=C/c1nc2ccccc2s1
- TGI [1]: > 100 µM
- TGI [2]: > 100 µM
- TGI [3]: > 100 µM
- TGI [4]: > 100 µM
- TGI [5]: > 100 µM
- TGI [6]: > 100 µM
- TGI [7]: > 100 µM
- TGI [8]: > 100 µM
- TGI [9]: > 100 µM
- TGI [10]: > 100 µM

SMILES: CC(=O)O[C@H]1CC2C(C3CC[C@H](C(C)CCC(=O)O)[C@]31C)[C@H](OC(C)=O)C[C@@H]1CC3(CC[C@]21C)OOC1(CCC(C)CC1)OO3 (stereo partly specified)
- TGI [1]: 13.4 µM and 3.86 µM
- TGI [2]: 4.9 µM and 2.9 µM
- TGI [3]: 7.39 µM and 3.49 µM
- TGI [5]: 19.3 µM and 10.9 µM
- GI50 [6]: 7.2 µM and 3.39 µM
- TGI [6]: 20.1 µM and 12.5 µM
- GI50 [7]: 10.6 µM and 3.14 µM
- TGI [7]: 22.4 µM and 10.7 µM
- TGI [8]: 18.3 µM and 9.27 µM
- TGI [9]: 14.1 µM and 8.75 µM
- TGI [10]: 24.8 µM and 24.3 µM

SMILES: CC(C)[C@@H]1CC[C@]2(CO2)[C@@H]2C(=O)OCC(C(=O)O)=C[C@H]21
- GI50 [1]: 1.57 µM
- TGI [1]: > 100 µM
- GI50 [2]: 5.17 µM
- TGI [2]: > 100 µM
- GI50 [3]: 0.35 µM
- TGI [3]: 6.94 µM
- GI50 [4]: 0.331 µM
- TGI [4]: 1.42 µM
- GI50 [5]: 0.273 µM
- TGI [5]: 0.898 µM
- GI50 [6]: 0.348 µM
- TGI [6]: 1.51 µM
- GI50 [7]: 0.438 µM
- TGI [7]: > 100 µM
- GI50 [8]: 0.32 µM
- TGI [8]: > 20.1 µM
- GI50 [9]: 0.381 µM
- TGI [9]: > 100 µM

SMILES: COCCN(Cc1ccc(F)cc1)c1ccc(CO)c(Cl)c1
- GI50 [1]: 10.4 µM
- TGI [1]: > 79.5 µM
- GI50 [3]: 13.5 µM
- TGI [3]: > 100 µM
- GI50 [4]: 36.2 µM
- TGI [4]: > 100 µM
- GI50 [5]: 38.9 µM
- TGI [5]: > 100 µM
- GI50 [6]: 12.2 µM
- TGI [6]: 26.2 µM
- GI50 [7]: 38.6 µM
- TGI [7]: > 100 µM
- GI50 [8]: 24.9 µM
- TGI [8]: > 100 µM
- GI50 [9]: 0.748 µM
- TGI [9]: 7.04 µM
- GI50 [10]: 0.492 µM
- TGI [10]: 2.5 µM

SMILES: Cc1ccc(S(=O)(=O)NCCCCC(N)C(=O)O)cc1 (stereo unspecified)
- TGI [1]: > 100 µM
- TGI [2]: > 100 µM
- TGI [3]: > 100 µM
- TGI [5]: > 100 µM
- TGI [6]: > 100 µM
- TGI [7]: > 100 µM
- TGI [8]: > 100 µM
- TGI [9]: > 100 µM
- TGI [10]: > 100 µM

SMILES: S=C1SCN(Cc2ccccc2)CN1Cc1ccco1
- GI50 [1]: 23.3 µM
- TGI [1]: > 100 µM
- GI50 [3]: 5.33 µM
- TGI [3]: 26.8 µM
- GI50 [4]: 1.88 µM
- TGI [4]: 10.2 µM
- GI50 [5]: 4.04 µM
- TGI [5]: 19.3 µM
- GI50 [6]: 11.7 µM
- TGI [6]: 26.9 µM
- GI50 [7]: 12.9 µM
- TGI [7]: 52.7 µM
- GI50 [8]: 4.06 µM
- TGI [8]: 15.3 µM
- GI50 [9]: 3.41 µM
- TGI [9]: 21.9 µM
- GI50 [10]: 6.28 µM
- TGI [10]: 20.7 µM

SMILES: C=C(CN1CCc2[nH]c3ccc(F)cc3c2C1)c1ccc(C(=O)Nc2ccccc2N)cc1
- GI50 [1]: 1.17 µM
- TGI [1]: 9.17 µM
- GI50 [2]: 5.06 µM
- TGI [2]: 19.7 µM
- GI50 [3]: 0.605 µM
- TGI [3]: 8.38 µM
- GI50 [5]: 0.78 µM
- TGI [5]: 4.75 µM
- GI50 [6]: 0.502 µM
- TGI [6]: 1.83 µM
- GI50 [7]: 2.92 µM
- TGI [7]: 11.8 µM
- GI50 [8]: 3.82 µM
- TGI [8]: 14 µM
- GI50 [9]: 3.76 µM
- TGI [9]: 87.8 µM
- GI50 [10]: 0.6 µM
- TGI [10]: 2.71 µM
